Reference: publication PMC4795541, “A Rapid and Quantitative Flow Cytometry Method for the Analysis of Membrane Disruptive Antimicrobial Activity” (PLoS ONE, 2016)
Where a SMILES comes first, the peptide text is derived from it. [ ]: non-standard residue; d: D form. Phe(ol) = N[C@H](CO)Cc1ccccc1; Aib = CC(C)(N)C(=O)O

Tests used:
Assay in all cases: MDC, flow cytometry Syto9/PI membrane disruption assay
Details in all cases: 90 min incubation, average of 3 assays ± SD
[1] = system: S. aureus (MSSA) ATCC 29213; format: cell-based, Staphylococcus aureus
Source text: (§1) The bacterial strains; Fusobacterium nucleatum ATCC 25586, Streptococcus mutans Ingbritt, Staphylococcus aureus (MSSA) ATCC 29213; Staphylococcus aureus (MRSA) ATCC 43300; Enterococcus faecalis ATCC 29212; Enterobacter aerogenes ATCC 13048; Pseudomonas aeruginosa strain PAO1-LAC, ATCC 47085; Klebsiella pneumoniae ATCC 13883; Acinetobacter baumannii strain 2208, ATCC 19606; Escherichia coli ATCC 25922 lyophilised or glycerol stocks were obtained from the culture collection of the Oral Health Cooperative Research Centre, The Melbourne Dental School, University of Melbourne, Australia. These strains were selected for this study as they are widely used in antimicrobial studies and are considered to be important pathogens and major targets for antibiotic resistant studies. […] After overnight incubation, 0.5–2.0 mL of the starter culture was used to inoculate the appropriate fresh broth (200 mL) and growth monitored at 650 nm using a spectrophotometer (model 275E; Perkin-Elmer, Sydney, Australia) with culture purity checked by microscopic examination and culture. Bacteria were harvested during late exponential growth phase and viability and bacteria/mL determined using a BacLight viability kit (Invitrogen, Sydney, Australia) and a Quanta SC-MPL flow cytometer (Beckman coulter Pty, Ltd, Sydney, Australia). […]

E. aerogenes ATCC 13048 = format: cell-based, Enterobacter aerogenes
Source text: as §1

K. pneumoniae ATCC 13883 = format: cell-based, Klebsiella pneumoniae
Source text: as §1

[2] = system: P. aeruginosa strain PAO1-LAC, ATCC 47085; format: cell-based, Pseudomonas aeruginosa
Source text: as §1

E. coli ATCC 25922 = format: cell-based, Escherichia coli
Source text: as §1

[3] = system: A. baumannii strain 2208, ATCC 19606; format: cell-based, Acinetobacter baumannii
Source text: as §1

## CC(=O)NC(C)(C)C(=O)N1CCC[C@H]1C(=O)NC(C)(C)C(=O)N[C@@H](C)C(=O)NC(C)(C)C(=O)N[C@@H](C)C(=O)N[C@@H](CCC(N)=O)C(=O)NC(C)(C)C(=O)N[C@H](C(=O)NC(C)(C)C(=O)NCC(=O)N[C@@H](CC(C)C)C(=O)NC(C)(C)C(=O)N1CCC[C@H]1C(=O)N[C@H](C(=O)NC(C)(C)C(=O)NC(C)(C)C(=O)N[C@@H](CCC(=O)O)C(=O)N[C@@H](CCC(N)=O)C(=O)N[C@H](CO)Cc1ccccc1)C(C)C)C(C)C [Alamethicin] (Ac-[Aib]P[Aib]A[Aib]AQ[Aib]V[Aib]GL[Aib]PV[Aib][Aib]EQ[Phe(ol)]; N-terminus assumed)
[1]
  MDC: 30.3 ± 8.2 µM
E. aerogenes ATCC 13048
  MDC: >250 µM
K. pneumoniae ATCC 13883
  MDC: >250 µM
[2]
  MDC: >250 µM
E. coli ATCC 25922
  MDC: >250 µM
[3]
  MDC: >250 µM
